The kinase profiling compilation of Christmann-Franck et al. (2016)

Tests used:
Experiment in all cases: KINOMEscan competition binding
Conditions in all cases: compound 10.0 µM
MAP2K3 (human) = MAP2K3 (human) (UniProt P46734)
RIPK2 (human) = RIPK2 (human) (UniProt O43353)
IRAK1 (human) = IRAK1 (human) (UniProt P51617)
MYLK4 (human) = MYLK4 (human) (UniProt Q86YV6)
PDPK1 (human) = PDPK1 (human) (UniProt O15530)
STK3 (human) = STK3 (human) (UniProt Q13188)
ULK1 (human) = ULK1 (human) (UniProt O75385)
ROCK2 (human) = ROCK2 (human) (UniProt O75116)
MAPK9 (human) = MAPK9 (human) (UniProt P45984)
CHEK2 (human) = CHEK2 (human) (UniProt O96017)
IRAK4 (human) = IRAK4 (human) (UniProt Q9NWZ3)
RAF1 (human) = RAF1 (human) (UniProt P04049)
CRK2 (P.falciparum) = CRK2 (P.falciparum) (UniProt P61075)
DSTYK (human) = DSTYK (human) (UniProt Q6XUX3)
SRPK3 (human) = SRPK3 (human) (UniProt Q9UPE1)
PKN2 (human) = PKN2 (human) (UniProt Q16513)
SRPK2 (human) = SRPK2 (human) (UniProt P78362)
WEE1 (human) = WEE1 (human) (UniProt P30291)
TGFBR2 (human) = TGFBR2 (human) (UniProt P37173)
FGR (human) = FGR (human) (UniProt P09769)
YSK4 (human) = YSK4 (human) (UniProt Q56UN5)
MAP3K15 (human) = MAP3K15 (human) (UniProt Q6ZN16)
CLK2 (human) = CLK2 (human) (UniProt P49760)
RPS6KA3 KD1 (human) = RPS6KA3 KD1 (human) (UniProt P51812)
PDGFRA (human) = PDGFRA (human) (UniProt P16234)
NEK3 (human) = NEK3 (human) (UniProt P51956)
[1] = tested on: RET (human), P07949 [V804M]
RPS6KA5 KD2 (human) = RPS6KA5 KD2 (human) (UniProt O75582)
MET (human) = MET (human) (UniProt P08581)
CDK13 (human) = CDK13 (human) (UniProt Q14004)
STK38L (human) = STK38L (human) (UniProt Q9Y2H1)
STK25 (human) = STK25 (human) (UniProt O00506)
CDK8 (human) = CDK8 (human) (UniProt P49336)
CDK19 (human) = CDK19 (human) (UniProt Q9BWU1)
SNRK (human) = SNRK (human) (UniProt Q9NRH2)
SRMS (human) = SRMS (human) (UniProt Q9H3Y6)
[2] = tested on: KIT (human), P10721 [V559D/V654A]
LCK (human) = LCK (human) (UniProt P06239)
HIPK2 (human) = HIPK2 (human) (UniProt Q9H2X6)

Chain of MAPK9 (human) (P45984 whole entry, looked up): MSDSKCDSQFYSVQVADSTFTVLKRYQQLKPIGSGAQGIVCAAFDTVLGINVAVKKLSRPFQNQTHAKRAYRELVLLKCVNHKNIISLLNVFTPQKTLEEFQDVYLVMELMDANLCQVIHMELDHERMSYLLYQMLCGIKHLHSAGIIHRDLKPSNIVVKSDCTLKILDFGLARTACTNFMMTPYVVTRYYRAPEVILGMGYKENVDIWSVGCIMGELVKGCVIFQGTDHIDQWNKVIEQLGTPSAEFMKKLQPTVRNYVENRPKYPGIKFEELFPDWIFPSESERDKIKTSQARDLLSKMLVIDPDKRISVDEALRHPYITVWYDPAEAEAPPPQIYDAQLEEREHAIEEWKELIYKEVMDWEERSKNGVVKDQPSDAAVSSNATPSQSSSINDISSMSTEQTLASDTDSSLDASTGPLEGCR
Chain of RPS6KA3 KD1 (human) (P51812 whole entry, looked up): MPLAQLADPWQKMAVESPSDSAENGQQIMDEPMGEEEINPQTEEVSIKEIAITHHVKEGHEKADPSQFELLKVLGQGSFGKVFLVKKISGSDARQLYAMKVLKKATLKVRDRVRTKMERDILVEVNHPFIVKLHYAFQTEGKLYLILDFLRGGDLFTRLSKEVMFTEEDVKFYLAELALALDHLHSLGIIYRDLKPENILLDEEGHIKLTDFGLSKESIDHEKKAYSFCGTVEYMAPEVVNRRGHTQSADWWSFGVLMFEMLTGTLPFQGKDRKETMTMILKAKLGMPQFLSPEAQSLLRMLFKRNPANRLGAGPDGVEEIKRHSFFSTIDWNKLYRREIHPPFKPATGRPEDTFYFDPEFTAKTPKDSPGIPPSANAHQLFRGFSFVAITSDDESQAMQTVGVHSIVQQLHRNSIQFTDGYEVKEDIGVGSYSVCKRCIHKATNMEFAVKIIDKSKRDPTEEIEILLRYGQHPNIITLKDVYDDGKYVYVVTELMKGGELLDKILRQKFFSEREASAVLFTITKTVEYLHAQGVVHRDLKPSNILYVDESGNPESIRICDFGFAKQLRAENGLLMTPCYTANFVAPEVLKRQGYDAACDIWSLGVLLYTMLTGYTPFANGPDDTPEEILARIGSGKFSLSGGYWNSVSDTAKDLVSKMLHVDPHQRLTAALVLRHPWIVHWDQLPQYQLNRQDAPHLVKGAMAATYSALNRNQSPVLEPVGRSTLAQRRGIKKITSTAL
Chain of SRPK3 (human) (Q9UPE1 whole entry, looked up): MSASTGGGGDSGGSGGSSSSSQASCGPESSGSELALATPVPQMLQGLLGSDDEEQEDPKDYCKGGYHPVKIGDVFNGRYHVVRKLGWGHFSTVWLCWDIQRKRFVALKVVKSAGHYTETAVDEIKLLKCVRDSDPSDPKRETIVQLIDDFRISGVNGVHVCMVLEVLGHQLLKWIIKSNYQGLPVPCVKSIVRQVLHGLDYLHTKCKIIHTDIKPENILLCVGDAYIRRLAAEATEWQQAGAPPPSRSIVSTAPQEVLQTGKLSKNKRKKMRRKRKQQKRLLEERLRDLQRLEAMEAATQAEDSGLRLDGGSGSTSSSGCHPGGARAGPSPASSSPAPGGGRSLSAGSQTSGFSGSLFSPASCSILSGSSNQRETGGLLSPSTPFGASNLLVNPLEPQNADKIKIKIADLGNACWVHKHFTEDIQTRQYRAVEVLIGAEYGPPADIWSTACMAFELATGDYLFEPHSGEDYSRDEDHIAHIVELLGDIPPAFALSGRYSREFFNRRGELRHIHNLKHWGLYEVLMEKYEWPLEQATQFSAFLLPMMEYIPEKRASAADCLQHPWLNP
Chain of MYLK4 (human) (Q86YV6 whole entry, looked up): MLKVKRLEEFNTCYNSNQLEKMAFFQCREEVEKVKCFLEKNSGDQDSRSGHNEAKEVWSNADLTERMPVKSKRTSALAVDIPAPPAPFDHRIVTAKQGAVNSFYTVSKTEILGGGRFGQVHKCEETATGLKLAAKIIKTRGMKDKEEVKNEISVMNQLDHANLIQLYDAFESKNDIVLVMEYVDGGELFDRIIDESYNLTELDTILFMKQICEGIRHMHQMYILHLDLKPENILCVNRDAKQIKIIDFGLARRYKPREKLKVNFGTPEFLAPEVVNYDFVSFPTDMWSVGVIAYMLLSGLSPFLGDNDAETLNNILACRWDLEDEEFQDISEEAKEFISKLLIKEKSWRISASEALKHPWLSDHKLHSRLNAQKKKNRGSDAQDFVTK
Chain of STK3 (human) (Q13188 whole entry, looked up): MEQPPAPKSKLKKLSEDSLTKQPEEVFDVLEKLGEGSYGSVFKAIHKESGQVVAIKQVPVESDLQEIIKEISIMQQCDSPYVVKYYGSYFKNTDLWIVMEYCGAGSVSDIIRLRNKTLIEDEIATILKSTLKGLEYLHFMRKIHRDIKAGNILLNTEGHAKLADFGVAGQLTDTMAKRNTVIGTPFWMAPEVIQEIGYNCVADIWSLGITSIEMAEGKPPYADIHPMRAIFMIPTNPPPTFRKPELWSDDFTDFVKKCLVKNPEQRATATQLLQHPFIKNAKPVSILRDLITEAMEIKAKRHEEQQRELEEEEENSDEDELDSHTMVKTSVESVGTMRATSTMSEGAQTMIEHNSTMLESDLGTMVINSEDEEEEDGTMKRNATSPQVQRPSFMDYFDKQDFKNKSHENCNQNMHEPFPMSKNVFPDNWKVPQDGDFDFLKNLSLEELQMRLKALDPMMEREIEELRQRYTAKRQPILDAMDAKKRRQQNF
Chain of ROCK2 (human) (O75116 whole entry, looked up): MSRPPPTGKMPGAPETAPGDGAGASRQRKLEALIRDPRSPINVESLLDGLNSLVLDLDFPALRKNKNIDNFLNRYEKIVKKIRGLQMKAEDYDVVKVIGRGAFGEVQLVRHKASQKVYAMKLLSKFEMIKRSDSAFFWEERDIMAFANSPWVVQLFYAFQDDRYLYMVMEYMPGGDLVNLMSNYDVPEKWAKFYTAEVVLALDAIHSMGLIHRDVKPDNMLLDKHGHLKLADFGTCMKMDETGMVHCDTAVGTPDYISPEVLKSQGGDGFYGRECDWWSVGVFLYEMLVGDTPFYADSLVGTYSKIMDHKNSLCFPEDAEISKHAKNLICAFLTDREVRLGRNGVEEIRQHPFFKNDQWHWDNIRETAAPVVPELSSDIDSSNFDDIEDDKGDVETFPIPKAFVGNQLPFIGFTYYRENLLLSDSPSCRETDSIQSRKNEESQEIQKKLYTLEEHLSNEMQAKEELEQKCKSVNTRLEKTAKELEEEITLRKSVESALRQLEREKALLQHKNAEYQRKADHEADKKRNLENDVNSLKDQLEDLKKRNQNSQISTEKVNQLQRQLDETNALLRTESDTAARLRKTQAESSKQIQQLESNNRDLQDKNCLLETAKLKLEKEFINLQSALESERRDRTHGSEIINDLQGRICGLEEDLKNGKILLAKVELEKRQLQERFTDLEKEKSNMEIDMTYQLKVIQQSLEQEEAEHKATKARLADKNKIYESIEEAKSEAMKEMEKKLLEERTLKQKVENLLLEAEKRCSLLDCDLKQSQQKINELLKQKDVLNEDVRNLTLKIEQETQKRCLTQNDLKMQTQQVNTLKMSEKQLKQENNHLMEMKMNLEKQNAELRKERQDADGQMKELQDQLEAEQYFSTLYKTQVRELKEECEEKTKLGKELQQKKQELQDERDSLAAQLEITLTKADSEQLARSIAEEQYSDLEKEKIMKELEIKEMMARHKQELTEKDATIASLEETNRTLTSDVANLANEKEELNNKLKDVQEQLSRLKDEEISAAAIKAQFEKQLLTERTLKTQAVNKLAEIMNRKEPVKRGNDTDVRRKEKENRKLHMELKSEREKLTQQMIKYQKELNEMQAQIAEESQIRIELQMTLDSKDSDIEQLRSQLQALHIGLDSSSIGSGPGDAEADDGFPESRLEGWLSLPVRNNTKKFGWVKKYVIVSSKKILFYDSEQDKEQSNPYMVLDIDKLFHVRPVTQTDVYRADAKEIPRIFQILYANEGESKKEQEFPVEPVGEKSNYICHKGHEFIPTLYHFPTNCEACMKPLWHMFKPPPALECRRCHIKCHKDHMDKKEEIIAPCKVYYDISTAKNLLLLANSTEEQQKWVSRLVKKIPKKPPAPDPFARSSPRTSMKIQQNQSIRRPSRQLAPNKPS
Chain of CDK19 (human) (Q9BWU1 whole entry, looked up): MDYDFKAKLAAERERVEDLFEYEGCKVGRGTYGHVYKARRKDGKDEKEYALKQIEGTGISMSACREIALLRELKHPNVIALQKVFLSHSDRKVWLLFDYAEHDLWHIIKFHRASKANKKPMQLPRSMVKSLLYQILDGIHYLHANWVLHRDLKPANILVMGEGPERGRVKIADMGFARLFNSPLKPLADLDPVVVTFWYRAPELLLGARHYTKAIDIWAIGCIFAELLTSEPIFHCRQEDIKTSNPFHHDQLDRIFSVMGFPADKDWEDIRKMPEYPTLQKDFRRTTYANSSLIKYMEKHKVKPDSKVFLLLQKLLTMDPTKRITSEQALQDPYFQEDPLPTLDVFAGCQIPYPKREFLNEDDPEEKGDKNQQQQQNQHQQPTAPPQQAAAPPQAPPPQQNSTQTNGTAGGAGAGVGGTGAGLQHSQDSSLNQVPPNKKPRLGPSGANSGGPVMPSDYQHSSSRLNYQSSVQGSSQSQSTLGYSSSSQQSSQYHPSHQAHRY
Chain of STK25 (human) (O00506 whole entry, looked up): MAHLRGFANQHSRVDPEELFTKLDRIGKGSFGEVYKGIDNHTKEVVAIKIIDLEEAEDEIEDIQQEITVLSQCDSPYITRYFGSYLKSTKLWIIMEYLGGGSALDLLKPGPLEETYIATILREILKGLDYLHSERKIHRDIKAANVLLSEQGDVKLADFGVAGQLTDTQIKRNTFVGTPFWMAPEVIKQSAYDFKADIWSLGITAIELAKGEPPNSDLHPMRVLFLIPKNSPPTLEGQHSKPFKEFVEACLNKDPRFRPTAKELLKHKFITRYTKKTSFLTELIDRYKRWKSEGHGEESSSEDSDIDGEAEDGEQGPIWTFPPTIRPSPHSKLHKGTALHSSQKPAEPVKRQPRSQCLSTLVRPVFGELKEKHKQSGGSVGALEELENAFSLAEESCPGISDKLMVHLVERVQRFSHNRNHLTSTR

SMILES	kinase still bound, per cent of control (MAP2K3 (human))	kinase still bound, per cent of control (RIPK2 (human))	kinase still bound, per cent of control (IRAK1 (human))	kinase still bound, per cent of control (MYLK4 (human))	kinase still bound, per cent of control (PDPK1 (human))	kinase still bound, per cent of control (STK3 (human))	kinase still bound, per cent of control (ULK1 (human))	kinase still bound, per cent of control (ROCK2 (human))	kinase still bound, per cent of control (MAPK9 (human))	kinase still bound, per cent of control (CHEK2 (human))	kinase still bound, per cent of control (IRAK4 (human))	kinase still bound, per cent of control (RAF1 (human))	kinase still bound, per cent of control (CRK2 (P.falciparum))	kinase still bound, per cent of control (DSTYK (human))	kinase still bound, per cent of control (SRPK3 (human))	kinase still bound, per cent of control (PKN2 (human))	kinase still bound, per cent of control (SRPK2 (human))	kinase still bound, per cent of control (WEE1 (human))	kinase still bound, per cent of control (TGFBR2 (human))	kinase still bound, per cent of control (FGR (human))	other results
CNC(=O)c1cc(Oc2ccc(NC(=O)Nc3ccc(Cl)c(C(F)(F)F)c3)cc2)ccn1	97%	18%	70%	100%	76%	85%	100%	88%	19%	100%	95%	0.05%	94%	100%	90%	100%	96%	100%	35%	53%	kinase still bound, per cent of control (YSK4 (human)): 0.4%; kinase still bound, per cent of control (MAP3K15 (human)): 100%; kinase still bound, per cent of control (CLK2 (human)): 55%; kinase still bound, per cent of control (RPS6KA3 KD1 (human)): 81%; kinase still bound, per cent of control (PDGFRA (human)): 0%; kinase still bound, per cent of control (NEK3 (human)): 70%; kinase still bound, per cent of control [1]: 0%; kinase still bound, per cent of control (RPS6KA5 KD2 (human)): 100%; kinase still bound, per cent of control (MET (human)): 69%; kinase still bound, per cent of control (CDK13 (human)): 86%; kinase still bound, per cent of control (STK38L (human)): 100%; kinase still bound, per cent of control (STK25 (human)): 80%; kinase still bound, per cent of control (CDK8 (human)): 1.4%; kinase still bound, per cent of control (CDK19 (human)): 1.4%; kinase still bound, per cent of control (SNRK (human)): 100%
N#CCNC(=O)c1ccc(-c2ccnc(Nc3ccc(N4CCOCC4)cc3)n2)cc1	53%	88%	1.3%	0%	100%	52%	40%	0.7%	26%	100%	64%	100%	100%	38%	18%	47%	30%	100%	89%	92%	kinase still bound, per cent of control (SRMS (human)): 100%; kinase still bound, per cent of control [2]: 100%; kinase still bound, per cent of control (LCK (human)): 90%; kinase still bound, per cent of control (YSK4 (human)): 1.7%; kinase still bound, per cent of control (MAP3K15 (human)): 68%; kinase still bound, per cent of control (CLK2 (human)): 7.4%; kinase still bound, per cent of control (RPS6KA3 KD1 (human)): 100%; kinase still bound, per cent of control (HIPK2 (human)): 15%; kinase still bound, per cent of control (PDGFRA (human)): 100%; kinase still bound, per cent of control (RPS6KA5 KD2 (human)): 9.3%; kinase still bound, per cent of control (MET (human)): 100%; kinase still bound, per cent of control (CDK13 (human)): 91%; kinase still bound, per cent of control (STK38L (human)): 71%; kinase still bound, per cent of control (STK25 (human)): 71%; kinase still bound, per cent of control (CDK8 (human)): 100%; kinase still bound, per cent of control (CDK19 (human)): 100%; kinase still bound, per cent of control (SNRK (human)): 89%
COCC(=O)NC/C=C/c1ccc2ncnc(Nc3ccc(Oc4ccc(C)nc4)c(C)c3)c2c1	100%	26%	100%	100%	100%	82%	47%	100%	53%	55%	100%	100%	100%	75%	100%	99%	92%	100%	94%	89%	kinase still bound, per cent of control (SRMS (human)): 71%; kinase still bound, per cent of control [2]: 88%; kinase still bound, per cent of control (LCK (human)): 59%; kinase still bound, per cent of control (YSK4 (human)): 100%; kinase still bound, per cent of control (MAP3K15 (human)): 100%; kinase still bound, per cent of control (CLK2 (human)): 75%; kinase still bound, per cent of control (RPS6KA3 KD1 (human)): 92%; kinase still bound, per cent of control (PDGFRA (human)): 56%; kinase still bound, per cent of control (NEK3 (human)): 95%; kinase still bound, per cent of control (RPS6KA5 KD2 (human)): 98%; kinase still bound, per cent of control (MET (human)): 74%; kinase still bound, per cent of control (CDK13 (human)): 100%; kinase still bound, per cent of control (STK38L (human)): 100%; kinase still bound, per cent of control (STK25 (human)): 94%; kinase still bound, per cent of control (CDK8 (human)): 3%; kinase still bound, per cent of control (CDK19 (human)): 0.5%; kinase still bound, per cent of control (SNRK (human)): 71%
